Read-outs that look alike come from different tables or passages of the source.

Data set [1] is described as follows: XTT cytotoxicity assay. In kind it is cell-based. The conditions noted are these: human, Huh-7.5 cells. Here is the method:
The cytotoxicity of compounds to Huh-7.5 cells was measured in parallel with the HCV replication assay based on the cleavage of the yellow tetrazolium salt XTT® (sodium 3-[1 (phenylaminocarbonyl)-3, 4-tetrazolium]-bis(4-methoxy-6-nitro)benzene sulfonic acid) to generate an orange formazan dye by metabolic function of alive and active cells. Cells were treated with various concentrations ([…]) of compounds and incubated for 72 hours.
The cell cytotoxicity was determined using XTT proliferation assay kit (Sigma-Aldrich) following the manufacturer’s instructions. The 50% cytotoxic concentration (CC50) was defined as the concentration of compound that reduced cell proliferation by 50%.

The test system of data set [2] is HCV (JFH-1 strain) in Huh7.5 cells. In words: Cell-based HCV replicon assay (RT-qPCR of HCV RNA in infected Huh7.5 cells). The arrangement: species or system hepatitis C virus. The conditions noted are these: for EC50: Huh7.5 cells infected with HCV (JFH-1), three days, HCV RNA by quantitative RT-PCR; for SI = CC50/EC50: selectivity index, CC50 (Huh-7.5, XTT) / EC50 (HCV replicon). Here is the method: The plasmid encoding the full genome of […] (JFH-1) strain (kindly provided by Wakita T) was used for in-vitro transcription to produce approximately high titer stocks of cell culture-produced virus (HCVcc) as previously described ([37]).
Huh7.5 cells were seeded into 48-well plates at a density of 3×10^5 cells per well with DMEM containing 10% FBS. After 24 h, huh7.5 cells were infected with HCV viral stock ([…]) for 3 h, at which point the infection was stopped and each well was washed three times by sterile PBS to removed non-penetrated virions and then the fresh medium was added to each well. Subsequently, the infected cells were treated with newly synthesized compounds at different concentrations and the sofosbuvir (Sigma-Aldrich, USA) as a positive control. After three days inoculation, the supernatant medium was collected and the viral RNA was extracted using viral QIAamp viral RNA mini kit (Qiagen, Düsseldorf, Germany), according to the manufacturer protocol. Then, the amount of HCV replicon RNA was determined using Quantitative RT-PCR assay by hepatitis C virus viral load kit (Gene Proof, Czech Republic, with CE, IVD) according to the manufacturer’s instruction.
The 50% effective concentration (EC50) was determined as the ratio of the normalized HCV RNA amount in treated samples relative to the controls (the samples without compound treatment) using GraphPad Prism5.0 software (GraphPad Software, San Diego, CA).
Target compounds 13-25 were evaluated in a cell-based viral replication surrogate assay known as the replicon system ([39]). We hypothesized that our quinolone analogues will inhibit NS5B, likely via binding to the active site. To test this hypothesis, FDA-approved active site binding NI, sofosbuvir, was used as a control compound. In parallel, compounds were also evaluated for their cytotoxic effects in the same cell line to ensure that the activity is completely devoid of cytotoxicity effects. The biological results are expressed as EC50, CC50 and SI (selectivity index, given by the CC50/EC50 ratio).

Where [3] appears, read: Hepatitis C virus, Huh7.5, 72 h, read-out: EC50.
[4] abbreviates: Hepatitis C virus, Huh7.5, 72 h.

For `O=C(NN=Cc1ccccc1)c1c[nH]c2ccc(OCc3ccccc3)cc2c1=O` [Compound 13, N′-Benzylidene-6-(benzyloxy)-4-oxo-1,4-dihydroquinoline-3-carbohydrazide], the melting point was 130 °C (dec.). Besides, the CC50 at 72 h in data set [1] is over 200 µM. Moreover, in data set [2] (setting [3]), the concentration giving a half-maximal response (EC50) is over 200 µM.

In the case of `CSc1ccc(C=NNC(=O)c2c[nH]c3ccc(OCc4ccccc4)cc3c2=O)cc1` [Compound 14, 6-(Benzyloxy)-N′-(4-(methylthio)benzylidene)-4-oxo-1,4-dihydroquinoline-3-carbohydrazide], the melting point was 160 °C (dec.). This compound came in with a CC50 at 72 h in data set [1] of over 200 µM. In data set [2] (setting [4]), this compound yielded an EC50 of over 200 µM.

`O=C(NN=Cc1ccc(F)cc1)c1c[nH]c2ccc(OCc3ccccc3)cc2c1=O` [Compound 15, 6-(Benzyloxy)-N′-(4-fluorobenzylidene)-4-oxo-1,4-dihydroquinoline-3-carbohydrazide]: the melting point was 305 °C (dec.). Besides, the CC50 at 72 h in data set [1] was over 200 µM. Further, in data set [2] (setting [3]), the EC50 was over 200 µM.

On to `O=C(NN=Cc1ccc(Cl)cc1)c1c[nH]c2ccc(OCc3ccccc3)cc2c1=O` [Compound 16, 6-(Benzyloxy)-N′-(4-chlorobenzylidene)-4-oxo-1,4-dihydroquinoline-3-carbohydrazide], for which the melting point was 329 °C (dec.). In data set [1], this compound gave a 50% cytotoxic concentration (CC50) at 72 h of over 200 µM. In data set [2] (setting [3]), the EC50 was over 200 µM.

Turning to `Cc1ccc(C=NNC(=O)c2c[nH]c3ccc(OCc4ccccc4)cc3c2=O)cc1` [Compound 17, 6-(Benzyloxy)-N′-(4-methylbenzylidene)-4-oxo-1,4-dihydroquinoline-3-carbohydrazide], the melting point was 330 °C (dec.). The CC50 at 72 h in data set [1] was over 200 µM. This compound showed an EC50 in data set [2] (setting [4]) of over 200 µM.

For the compound `COc1ccc(C=NNC(=O)c2c[nH]c3ccc(OCc4ccccc4)cc3c2=O)cc1` [Compound 18, 6-(Benzyloxy)-N′-(4-methoxybenzylidene)-4-oxo-1,4-dihydroquinoline-3-carbohydrazide], the melting point is 154 °C (dec.). Moreover, the half-maximal cytotoxic concentration (CC50) at 72 h in data set [1] was over 200 µM. For the same compound, the “SI = CC50/EC50” value in data set [2] was over 2.

`O=C(NN=Cc1cccc(F)c1)c1c[nH]c2ccc(OCc3ccccc3)cc2c1=O` [Compound 19, 6-(Benzyloxy)-N′-(3-fluorobenzylidene)-4-oxo-1,4-dihydroquinoline-3-carbohydrazide]: the melting point was 305 °C (dec.). The cytotoxic concentration (CC50) at 72 h in data set [1] was over 200 µM. In data set [2] (setting [3]), the EC50 was over 200 µM.

Turning to `O=C(NN=Cc1ccccc1F)c1c[nH]c2ccc(OCc3ccccc3)cc2c1=O` [Compound 20, 6-(Benzyloxy)-N′-(2-fluorobenzylidene)-4-oxo-1,4-dihydroquinoline-3-carbohydrazide], the melting point was 324 °C (dec.). The CC50 at 72 h in data set [1] is over 200 µM. In data set [2] (setting [4]), this compound came in with an EC50 of 70 µM. For the same compound, in data set [2], the response was half-maximal at 120 µM (EC50) and the “SI = CC50/EC50” value is on record as over 2.

For the compound `O=C(NN=Cc1cccc(Cl)c1)c1c[nH]c2ccc(OCc3ccccc3)cc2c1=O` [Compound 21, 6-(Benzyloxy)-N′-(3-chlorobenzylidene)-4-oxo-1,4-dihydroquinoline-3-carbohydrazide], the melting point was 291 °C (dec.). This compound also yielded a cytotoxic concentration (CC50) at 72 h in data set [1] of 90 µM. Also, the concentration for a half-maximal effect (EC50) in data set [2] (setting [3]) was determined as 35 µM. In data set [2], the “SI = CC50/EC50” value is reported as 2.5.

On to `Cc1cccc(C=NNC(=O)c2c[nH]c3ccc(OCc4ccccc4)cc3c2=O)c1` [Compound 22, 6-(Benzyloxy)-N′-(3-methylbenzylidene)-4-oxo-1,4-dihydroquinoline-3-carbohydrazide], for which the melting point is 310 °C (dec.). This compound also displayed a half-maximal cytotoxic concentration (CC50) at 72 h in data set [1] of 100 µM. For the same compound, the EC50 in data set [2] (setting [3]) turned out to be 45 µM. Further, the “SI = CC50/EC50” value in data set [2] is listed as 2.2.

In the case of `Cc1ccccc1C=NNC(=O)c1c[nH]c2ccc(OCc3ccccc3)cc2c1=O` [Compound 23, 6-(Benzyloxy)-N′-(2-methylbenzylidene)-4-oxo-1,4-dihydroquinoline-3-carbohydrazide], the melting point is 290 °C (dec.). Further, the midpoint of cytotoxicity in data set [1], the CC50 at 72 h, lay at 160 µM. Further, the EC50 in data set [2] (setting [3]) is 70 µM. For the same compound, the “SI = CC50/EC50” value in data set [2] was determined as 2.2.

Take `COc1cccc(C=NNC(=O)c2c[nH]c3ccc(OCc4ccccc4)cc3c2=O)c1` [Compound 24, 6-(Benzyloxy)-N′-(3-methoxybenzylidene)-4-oxo-1,4-dihydroquinoline-3-carbohydrazide]: the melting point was 280 °C (dec.). Further, the CC50 at 72 h in data set [1] is over 200 µM. The half-maximal effective concentration (EC50) in data set [2] (setting [3]) amounted to 120 µM. Moreover, the “SI = CC50/EC50” value in data set [2] was over 1.8.

In the case of `COc1ccccc1C=NNC(=O)c1c[nH]c2ccc(OCc3ccccc3)cc2c1=O` [Compound 25, 6-(Benzyloxy)-N′-(2-methoxybenzylidene)-4-oxo-1,4-dihydroquinoline-3-carbohydrazide], the melting point was 299 °C (dec.). Moreover, the CC50 at 72 h in data set [1] was over 200 µM. Further, the EC50 in data set [2] (setting [3]) was over 200 µM.

In turn, `CC(C)OC(=O)[C@H](C)N[P@](=O)(OC[C@H]1O[C@@H](n2ccc(=O)[nH]c2=O)[C@](C)(F)[C@@H]1O)Oc1ccccc1` [Sofosbuvir, sofosbuvir, reference compound] returned a half-maximal cytotoxic concentration (CC50) at 72 h in data set [1] of over 500 µM. Besides, the EC50 in data set [2] (setting [3]) was determined as 5 µM. In addition, the “SI = CC50/EC50” value in data set [2] is over 100.

Values taken from publication PMC7059030, “Design, Synthesis, Molecular Modeling Studies and Biological Evaluation of N′-Arylidene-6-(benzyloxy)-4-oxo-1,4-dihydroquinoline-3-carbohydrazide Derivatives as Novel Anti-HCV Agents” (Iranian Journal of Pharmaceutical Research : IJPR, 2019).
